These are literature values, as cited in patent EP1337618B1, “CLEANING TABLETS” (UNILEVER N.V., priority 2000, dated 2002).

Like-named read-outs stand apart in the source and are kept apart here.

Setting [1] is: at 20°C, other common materials.

In the case of `O=BO[O-].[Na+]` [Sodium perborate anhydrous], under setting [1], the “Water Solubility” value is on record as 3.7 g/100g. On to `O=P(O)(O)OP(=O)(O)OP(=O)(O)O` [Sodium tripolyphosphate anhydrous], for which the “Water Solubility” value under setting [1] is recorded as 15 g/100g. As for `NC(N)=O` [Urea], the solubility in water entry (at 20°C) was “exceeding 100 gms per 100ml water”. Further, for the setting “deionised water at 20°C, highly water-soluble materials”, the “Water Solubility” value is listed as >100 g/100g.
